Measurements reported in publication PMC4182301, “Design, synthesis and SAR exploration of tri-substituted 1,2,4-triazoles as inhibitors of the annexin A2–S100A10 protein interaction” (Bioorganic & Medicinal Chemistry, 2014).
Where two headings read alike, the source gives them in different places.

Molecular target: interaction between the AnxA2 N-terminus and S100A10 (Homo sapiens, UniProt P60903)
Assay: Fluorescence screening assay (FRET competitive binding, Cy3-AnxA2(Ac1–14) peptide / Cy5-S100A10)
Conditions: for IC50 / pIC50 ± SE: FRET assay, 12 observations
Method: Assessment of compound activity was performed as described.[35] Briefly, a Cy5-labelled S100A10 tracer was developed and binding of a Cy3-labelled AnxA2(Ac1–14) peptide ligand was assessed using a fluorescence resonance energy transfer readout. Assays were carried out in Nunc black non-treated 384-well plates at 20 °C in 50 μL buffer C. All incubations were performed in quadruplicate. Compounds, peptide and buffer controls were added to the wells in a 10 μL volume in 5% DMSO. Cy5-labelled S100A10 tracer (407 nM) and Cy3-labelled AnxA2(Ac1–14) peptide ligand (1.33 μM) were pre-incubated for 5 min at 20 °C and 40 μL of the preformed complex was then added to the wells and mixed for 10 s to yield a final DMSO concentration of 1%. After 5 min incubation at 20 °C, readings were taken on a Perkin Elmer Envision plate reader by excitation at 488 nm and emission at 695 nm. Fluorescence resonance energy transfer (FRET) was calculated by subtracting the sum of the fluorescence emission of S100A10-Cy5 and AA2(1–14)-Cy3 individually from that measured for the co-incubated partners. Compound binding was calculated as percentage of non-treated control and data were analysed by non-linear regression (dose response—variable slope with bottom and top parameters fixed at 0% and 100%, respectively) using Graphpad Prism Software to determine the IC50 of binding (primary assay).

[1] = Table 1, read-out: pIC50 ± SE (converted)

interaction between the AnxA2 N-terminus and S100A10, sequence (P60903 whole entry, species assumed): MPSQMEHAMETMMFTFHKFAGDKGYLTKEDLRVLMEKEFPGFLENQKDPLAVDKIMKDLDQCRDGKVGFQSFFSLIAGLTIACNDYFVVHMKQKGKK

Compound | IC50 (Table 1, read-out: IC50) [µM] | pIC50 ± SE (Table 1) | pIC50 ± SE (Table 2) | IC50 (Table 2, read-out: IC50) [µM] | also measured
Cc1nnc(NC(=O)CSc2nnc(Cc3ccccc3)n2Cc2ccccc2)s1 [Compound 1b] | 53 |  |  |  | 
COc1ccc(OCc2nnc(SC(C)C(=O)Nc3nccs3)n2-c2ccccc2)cc1 (stereo not drawn) [Compound 1c] | 108 |  |  |  | IC50 [1]: 110 µM
CCCCn1c(SCC(=O)Nc2cccc(C)n2)nnc1-c1ccco1 [Compound 1d] | 103 |  |  |  | IC50 [1]: 105 µM
Cc1cc(C)nc(SCc2nnc(SCC(N)=O)n2Cc2ccco2)n1 [Compound 27, 2-[5-(4,6-Dimethyl-pyrimidin-2-ylsulfanylmethyl)-4-furan-2-ylmethyl-4H-[1,2,4]triazol-3-ylsulfanyl]-acetamide] | 178 | 3.75 ± 0.15 |  |  | 
Cc1cc(C)nc(SCc2nnc(SCC(=O)Nc3nc(C)cs3)n2Cc2ccco2)n1 [Compound 29, 2-[5-(4,6-Dimethyl-pyrimidin-2-ylsulfanylmethyl)-4-furan-2-ylmethyl-4H-[1,2,4]triazol-3-ylsulfanyl]-N-(4-methyl-thiazol-2-yl)-acetamide] | 30 | 4.53 ± 0.06 |  |  | 
Cc1cc(C)nc(SCc2nnc(SCC(=O)Nc3cc(C(F)(F)F)cc(C(F)(F)F)c3)n2Cc2ccco2)n1 [Compound 38, N-(3,5-Bis-trifluoromethyl-phenyl)-2-[5-(4,6-dimethyl-pyrimidin-2-ylsulfanylmethyl)-4-furan-2-ylmethyl-4H-[1,2,4]triazol-3-ylsulfanyl]-acetamide] | 9 | 5.05 ± 0.03 |  |  | 
C=CCn1c(CSc2nc(C)cc(C)n2)nnc1SCC(=O)Nc1ccc(C)c(C)c1 [Compound 41, 2-[4-Allyl-5-(4,6-dimethyl-pyrimidin-2-ylsulfanylmethyl)-4H-[1,2,4]triazol-3-ylsulfanyl]-N-(3,4-dimethyl-phenyl)-acetamide] |  |  | 4.56 ± 0.03 | 27 | 
COCCCn1c(CSc2nc(C)cc(C)n2)nnc1SCC(=O)Nc1ccc(C)c(C)c1 [Compound 42, N-(3,4-Dimethyl-phenyl)-2-[5-(4,6-dimethyl-pyrimidin-2-ylsulfanylmethyl)-4-(3-methoxy-propyl)-4H-[1,2,4]triazol-3-ylsulfanyl]-acetamide] |  |  | 4.49 ± 0.04 | 32 | 
COc1ccc(-n2c(CSc3nc(C)cc(C)n3)nnc2SCC(=O)Nc2ccc(C)c(C)c2)cc1 [Compound 43, N-(3,4-Dimethyl-phenyl)-2-[5-(4,6-dimethyl-pyrimidin-2-ylsulfanylmethyl)-4-(4-methoxy-phenyl)-4H-[1,2,4]triazol-3-ylsulfanyl]-acetamide] |  |  | 4.29 ± 0.09 | 52 | 
Cc1cc(C)nc(SCc2nnc(SCC(=O)Nc3ccc(C)c(C)c3)n2-c2ccc(Cl)cc2)n1 [Compound 44, 2-[4-(4-Chloro-phenyl)-5-(4,6-dimethyl-pyrimidin-2-ylsulfanylmethyl)-4H-[1,2,4]triazol-3-ylsulfanyl]-N-(3,4-dimethyl-phenyl)-acetamide] |  |  | 4.23 ± 0.08 | 59 | 
C=CCn1c(CSc2nc(C)cc(C)n2)nnc1SCC(=O)Nc1ccc(C(C)C)cc1 [Compound 46, 2-[4-Allyl-5-(4,6-dimethyl-pyrimidin-2-ylsulfanylmethyl)-4H-[1,2,4]triazol-3-ylsulfanyl]-N-(4-isopropyl-phenyl)-acetamide] |  |  | 5.01 ± 0.03 | 10 | 
COCCCn1c(CSc2nc(C)cc(C)n2)nnc1SCC(=O)Nc1ccc(C(C)C)cc1 [Compound 47, 2-[5-(4,6-Dimethyl-pyrimidin-2-ylsulfanylmethyl)-4-(3-methoxy-propyl)-4H-[1,2,4]triazol-3-ylsulfanyl]-N-(4-isopropyl-phenyl)-acetamide] |  |  | 5.13 ± 0.04 | 7 | 
COc1ccc(-n2c(CSc3nc(C)cc(C)n3)nnc2SCC(=O)Nc2ccc(C(C)C)cc2)cc1 [Compound 48, 2-[5-(4,6-Dimethyl-pyrimidin-2-ylsulfanylmethyl)-4-(4-methoxy-phenyl)-4H-[1,2,4]triazol-3-ylsulfanyl]-N-(4-isopropyl-phenyl)-acetamide] |  |  | 4.82 ± 0.02 | 15 | 
Cc1cc(C)nc(SCc2nnc(SCC(=O)Nc3ccc(C(C)C)cc3)n2-c2ccc(Cl)cc2)n1 [Compound 49, 2-[4-(4-Chloro-phenyl)-5-(4,6-dimethyl-pyrimidin-2-ylsulfanylmethyl)-4H-[1,2,4]triazol-3-ylsulfanyl]-N-(4-isopropyl-phenyl)-acetamide] |  |  | 4.58 ± 0.04 | 27 | 
C=CCn1c(CSc2nc(C)cc(C)n2)nnc1SCC(=O)Nc1ccc(C(F)(F)F)cc1 [Compound 50, 2-[4-Allyl-5-(4,6-dimethyl-pyrimidin-2-ylsulfanylmethyl)-4H-[1,2,4]triazol-3-ylsulfanyl]-N-(4-trifluoromethyl-phenyl)-acetamide] |  |  | 5.08 ± 0.04 | 8 | 

Second part, led by results:

IC50 (Table 1, read-out: IC50) [µM] | pIC50 ± SE (Table 1) | pIC50 ± SE (Table 2) | IC50 (Table 2, read-out: IC50) [µM] | Compound | also measured
37 |  |  |  | Cc1ccc(C)c(NC(=O)CSc2nnc(CSc3nc(C)cc(C)n3)n2Cc2ccco2)c1 [Compound 1a, N-(2,5-Dimethyl-phenyl)-2-[5-(4,6-dimethyl-pyrimidin-2-ylsulfanylmethyl)-4-furan-2-ylmethyl-4H-[1,2,4]triazol-3-ylsulfanyl]-acetamide] | IC50 [1]: 38 µM
129 | 3.89 ± 0.06 |  |  | Cc1cc(C)nc(SCc2nnc(SCC(=O)Nc3nccs3)n2Cc2ccco2)n1 [Compound 28, 2-[5-(4,6-Dimethyl-pyrimidin-2-ylsulfanylmethyl)-4-furan-2-ylmethyl-4H-[1,2,4]triazol-3-ylsulfanyl]-N-thiazol-2-yl-acetamide] | 
43 | 4.37 ± 0.07 |  |  | Cc1cc(C)nc(SCc2nnc(SCC(=O)Nc3cc(C)on3)n2Cc2ccco2)n1 [Compound 30, 2-[5-(4,6-Dimethyl-pyrimidin-2-ylsulfanylmethyl)-4-furan-2-ylmethyl-4H-[1,2,4]triazol-3-ylsulfanyl]-N-(5-methyl-isoxazol-3-yl)-acetamide] | 
23 | 4.63 ± 0.04 |  |  | Cc1cc(C)nc(SCc2nnc(SCC(=O)Nc3ccccc3)n2Cc2ccco2)n1 [Compound 31, 2-[5-(4,6-Dimethyl-pyrimidin-2-ylsulfanylmethyl)-4-furan-2-ylmethyl-4H-[1,2,4]triazol-3-ylsulfanyl]-N-phenyl-acetamide] | 
13 | 4.89 ± 0.04 |  |  | Cc1cccc(NC(=O)CSc2nnc(CSc3nc(C)cc(C)n3)n2Cc2ccco2)c1 [Compound 32, 2-[5-(4,6-Dimethyl-pyrimidin-2-ylsulfanylmethyl)-4-furan-2-ylmethyl-4H-[1,2,4]triazol-3-ylsulfanyl]-N-m-tolyl-acetamide] | 
11 | 4.96 ± 0.04 |  |  | Cc1ccc(NC(=O)CSc2nnc(CSc3nc(C)cc(C)n3)n2Cc2ccco2)cc1 [Compound 33, 2-[5-(4,6-Dimethyl-pyrimidin-2-ylsulfanylmethyl)-4-furan-2-ylmethyl-4H-[1,2,4]triazol-3-ylsulfanyl]-N-p-tolyl-acetamide] | 
15 | 4.83 ± 0.04 |  |  | Cc1ccc(NC(=O)CSc2nnc(CSc3nc(C)cc(C)n3)n2Cc2ccco2)c(C)c1 [Compound 34, N-(2,4-Dimethyl-phenyl)-2-[5-(4,6-dimethyl-pyrimidin-2-ylsulfanylmethyl)-4-furan-2-ylmethyl-4H-[1,2,4]triazol-3-ylsulfanyl]-acetamide] | 
10 | 5.02 ± 0.04 |  |  | Cc1cc(C)nc(SCc2nnc(SCC(=O)Nc3ccc(C)c(C)c3)n2Cc2ccco2)n1 [Compound 35, N-(3,4-Dimethyl-phenyl)-2-[5-(4,6-dimethyl-pyrimidin-2-ylsulfanylmethyl)-4-furan-2-ylmethyl-4H-[1,2,4]triazol-3-ylsulfanyl]-acetamide] | 
28 | 4.55 ± 0.07 |  |  | Cc1cc(C)nc(SCc2nnc(SCC(=O)Nc3ccc(C(F)(F)F)cc3)n2Cc2ccco2)n1 [Compound 37, 2-[5-(4,6-Dimethyl-pyrimidin-2-ylsulfanylmethyl)-4-furan-2-ylmethyl-4H-[1,2,4]triazol-3-ylsulfanyl]-N-(4-trifluoromethyl-phenyl)-acetamide] | 
17 | 4.76 ± 0.03 |  |  | Cc1cc(C)nc(SCc2nnc(SCC(=O)Nc3ccc(Cl)cc3)n2Cc2ccco2)n1 [Compound 39, N-(4-Chloro-phenyl)-2-[5-(4,6-dimethyl-pyrimidin-2-ylsulfanylmethyl)-4-furan-2-ylmethyl-4H-[1,2,4]triazol-3-ylsulfanyl]-acetamide] | 
7 | 5.14 ± 0.03 |  |  | Cc1cc(C)nc(SCc2nnc(SCC(=O)Nc3ccc(Br)cc3)n2Cc2ccco2)n1 [Compound 40, N-(4-Bromo-phenyl)-2-[5-(4,6-dimethyl-pyrimidin-2-ylsulfanylmethyl)-4-furan-2-ylmethyl-4H-[1,2,4]triazol-3-ylsulfanyl]-acetamide] | fold increase in potency compared to initial hit compound 1a (relative to 1a): 5 fold
 |  | 4.62 ± 0.03 | 24 | Cc1cc(C)nc(SCc2nnc(SCCC(=O)Nc3ccc(C)c(C)c3)n2Cc2ccco2)n1 [Compound 45, N-(3,4-Dimethyl-phenyl)-3-[5-(4,6-dimethyl-pyrimidin-2-ylsulfanylmethyl)-4-furan-2-ylmethyl-4H-[1,2,4]triazol-3-ylsulfanyl]-propionamide] | 
